Structures can show the parent of a compound that is named as a salt.
Experiments:
[1] = Potency index, ratio of IC50 for adriamycin to IC50 for test compound for cytotoxicity against human HCT15 cells; format: functional, HCT-15
[2] = Cytotoxicity against human HCT15 cells after 3 days by CCK8 assay; format: functional, cell-based; settings: HCT-15, 72 h
T47D [3] = assay: Cytotoxicity against human T47D cells after 3 days by CCK8 assay; format: functional, cell-based; settings: 72 h
T47D [4] = assay: Potency index, ratio of IC50 for adriamycin to IC50 for test compound for cytotoxicity against human T47D cells; format: functional
HeLa [5] = assay: Potency index, ratio of IC50 for adriamycin to IC50 for test compound for cytotoxicity against human HeLa cells; format: functional
HeLa [6] = assay: Cytotoxicity against human HeLa cells after 3 days by CCK8 assay; format: functional, cell-based; settings: 72 h
[7] = biological target: T1, DNA topoisomerase 1 (Homo sapiens) (UniProt P11387); assay: Inhibition of human recombinant DNA topoisomerase 1 at 100 uM assessed as relaxation of supercoiled DNA pBR322 after 30 mins by Agarose gel electrophoresis
T1 sequence (whole entry): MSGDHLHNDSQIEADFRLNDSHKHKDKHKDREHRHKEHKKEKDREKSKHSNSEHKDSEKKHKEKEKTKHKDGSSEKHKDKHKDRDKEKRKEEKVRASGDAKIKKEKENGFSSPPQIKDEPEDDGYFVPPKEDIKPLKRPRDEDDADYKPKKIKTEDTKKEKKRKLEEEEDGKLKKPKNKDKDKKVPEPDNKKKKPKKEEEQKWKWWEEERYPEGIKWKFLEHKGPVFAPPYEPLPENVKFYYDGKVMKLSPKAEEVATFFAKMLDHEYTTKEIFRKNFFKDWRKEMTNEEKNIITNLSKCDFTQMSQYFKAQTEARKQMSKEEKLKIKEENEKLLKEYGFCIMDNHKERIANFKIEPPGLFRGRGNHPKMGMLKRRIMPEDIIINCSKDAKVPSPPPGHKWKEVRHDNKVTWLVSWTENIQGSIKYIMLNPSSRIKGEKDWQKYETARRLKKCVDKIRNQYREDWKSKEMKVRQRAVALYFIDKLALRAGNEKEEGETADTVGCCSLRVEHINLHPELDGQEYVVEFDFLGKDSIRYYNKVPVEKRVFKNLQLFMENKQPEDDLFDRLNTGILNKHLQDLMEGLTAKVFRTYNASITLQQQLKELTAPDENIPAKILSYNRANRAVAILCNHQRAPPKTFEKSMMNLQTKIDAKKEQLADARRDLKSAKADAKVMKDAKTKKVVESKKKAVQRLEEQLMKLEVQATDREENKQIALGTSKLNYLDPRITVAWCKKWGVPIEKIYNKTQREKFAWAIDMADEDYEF

[8] = biological target: DNA topoisomerase 2-alpha (Homo sapiens) (UniProt P11388); assay: Inhibition of human recombinant DNA topoisomerase 2alpha at 100 uM assessed as relaxation of supercoiled DNA pBR322 after 30 mins by Agarose gel electrophoresis
Sequence of DNA topoisomerase 2-alpha (Homo sapiens) (P11388 whole entry): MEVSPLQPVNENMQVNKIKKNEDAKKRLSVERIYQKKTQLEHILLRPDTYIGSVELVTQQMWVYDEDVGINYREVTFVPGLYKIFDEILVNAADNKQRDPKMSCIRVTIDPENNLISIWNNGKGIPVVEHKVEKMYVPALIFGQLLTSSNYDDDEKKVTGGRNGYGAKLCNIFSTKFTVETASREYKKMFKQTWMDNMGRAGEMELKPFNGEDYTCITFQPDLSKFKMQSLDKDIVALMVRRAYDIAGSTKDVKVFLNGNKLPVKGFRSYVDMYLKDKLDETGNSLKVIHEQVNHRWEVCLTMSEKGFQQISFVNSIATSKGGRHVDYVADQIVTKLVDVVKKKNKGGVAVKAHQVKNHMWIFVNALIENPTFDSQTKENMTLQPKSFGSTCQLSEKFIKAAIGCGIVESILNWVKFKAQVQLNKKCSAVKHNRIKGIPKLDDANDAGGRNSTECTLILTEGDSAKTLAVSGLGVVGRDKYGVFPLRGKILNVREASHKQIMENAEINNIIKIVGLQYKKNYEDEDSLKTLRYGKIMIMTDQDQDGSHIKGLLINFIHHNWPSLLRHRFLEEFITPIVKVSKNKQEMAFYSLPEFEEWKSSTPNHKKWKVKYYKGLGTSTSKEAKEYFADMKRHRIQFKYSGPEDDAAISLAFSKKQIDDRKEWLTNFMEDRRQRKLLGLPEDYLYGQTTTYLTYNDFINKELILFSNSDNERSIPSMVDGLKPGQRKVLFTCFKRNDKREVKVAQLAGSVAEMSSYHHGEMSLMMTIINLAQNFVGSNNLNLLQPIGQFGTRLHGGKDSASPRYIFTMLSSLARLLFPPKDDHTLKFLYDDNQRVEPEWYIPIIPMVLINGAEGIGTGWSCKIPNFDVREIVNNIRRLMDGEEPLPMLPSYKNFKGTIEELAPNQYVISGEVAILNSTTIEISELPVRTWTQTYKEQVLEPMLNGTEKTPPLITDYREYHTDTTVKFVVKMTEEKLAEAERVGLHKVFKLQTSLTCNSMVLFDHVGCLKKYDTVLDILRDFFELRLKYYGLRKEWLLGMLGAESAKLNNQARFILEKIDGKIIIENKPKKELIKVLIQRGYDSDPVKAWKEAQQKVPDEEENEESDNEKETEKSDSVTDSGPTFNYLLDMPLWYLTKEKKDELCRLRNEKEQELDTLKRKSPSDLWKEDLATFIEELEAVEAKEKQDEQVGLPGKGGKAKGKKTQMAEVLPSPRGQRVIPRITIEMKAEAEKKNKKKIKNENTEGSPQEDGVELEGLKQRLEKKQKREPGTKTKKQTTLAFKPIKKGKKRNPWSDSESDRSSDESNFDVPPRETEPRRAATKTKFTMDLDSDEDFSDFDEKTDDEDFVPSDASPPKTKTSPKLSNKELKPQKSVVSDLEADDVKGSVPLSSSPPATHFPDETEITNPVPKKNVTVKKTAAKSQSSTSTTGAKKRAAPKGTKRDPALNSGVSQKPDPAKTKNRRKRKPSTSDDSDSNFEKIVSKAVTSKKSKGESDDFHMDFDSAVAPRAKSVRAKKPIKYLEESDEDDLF

[9] = biological target: T1, DNA topoisomerase 1 (Homo sapiens); assay: Inhibition of human recombinant DNA topoisomerase 1 at 20 uM assessed as relaxation of supercoiled DNA pBR322 after 30 mins by Agarose gel electrophoresis

| inhibition [7] [%] | inhibition [8] [%] | inhibition [9] [%] | SMILES | Ratio IC50 [1] | IC50 [2] [nM] | IC50 (T47D [3]) [nM] | Ratio IC50 (T47D [4]) | Ratio IC50 (HeLa [5]) | IC50 (HeLa [6]) [µM] |
| --- | --- | --- | --- | --- | --- | --- | --- | --- | --- |
| 0 | 3 | – | Oc1ccc(-c2cc(-c3cccc(Cl)c3)nc3c2Cc2ccccc2-3)cc1 | 0.32 | 310 | 1420 | 1.03 | 0.16 | 5.04 |
| 1.1 | 2.8 | – | Oc1ccccc1-c1cc(-c2cccc(Cl)c2)c2c(n1)-c1ccccc1C2 | – | > 50000 | > 50000 | – | – | > 50 |
| 0 | 3.2 | – | Oc1cccc(-c2cc(-c3cccc(Cl)c3)nc3c2Cc2ccccc2-3)c1 | 0.03 | 3090 | 1320 | 1.11 | 0.18 | 4.59 |
| 5.8 | 3.8 | – | Oc1cccc(-c2cc(-c3ccc(Cl)cc3)c3c(n2)-c2ccccc2C3)c1 | 0.05 | 2090 | 1490 | 0.99 | 0.36 | 2.27 |
| 29.3 | 6.7 | – | Oc1cccc(-c2cc(-c3ccccc3Cl)c3c(n2)-c2ccccc2C3)c1 | 0.08 | 1170 | 2190 | 0.67 | 0.31 | 2.65 |
| 0 | 5.4 | – | Oc1ccccc1-c1cc(-c2cccc(Cl)c2)nc2c1Cc1ccccc1-2 | – | 30300 | > 50000 | – | – | 17.1 |
| 25.9 | 65.9 | – | Oc1ccc(-c2cc(-c3ccccc3)nc3c2Cc2ccccc2-3)cc1 | 0.57 | 2150 | 1360 | 0.98 | 0.18 | 4.84 |
| 7.5 | 4.4 | – | Oc1cccc(-c2cc(-c3cccc(Cl)c3)c3c(n2)-c2ccccc2C3)c1 | 0.06 | 1590 | 1850 | 0.79 | 0.43 | 1.91 |
| 2.3 | 76 | – | Oc1cccc(-c2cc(-c3ccccc3)c3c(n2)-c2ccccc2C3)c1 | 0.45 | 2710 | 3930 | 0.34 | 0.29 | 2.99 |
| 5.2 | 80.6 | – | Oc1ccc(-c2cc(-c3ccccc3)c3c(n2)-c2ccccc2C3)cc1 | 0.61 | 2010 | 2100 | 0.63 | 0.22 | 3.93 |
| 1.4 | 3.2 | – | Oc1ccc(-c2cc(-c3ccc(Cl)cc3)nc3c2Cc2ccccc2-3)cc1 | 0.11 | 870 | 1270 | 1.16 | 0.19 | 4.34 |
| 0 | 3.9 | – | Oc1cccc(-c2cc(-c3ccc(Cl)cc3)nc3c2Cc2ccccc2-3)c1 | 0.05 | 1880 | 1360 | 1.08 | 0.12 | 6.58 |
| 19.1 | 8.5 | – | Oc1ccc(-c2cc(-c3ccc(Cl)cc3)c3c(n2)-c2ccccc2C3)cc1 | 0.11 | 930 | 880 | 1.67 | 0.33 | 2.45 |
| 20.6 | 70.5 | – | Oc1cccc(-c2cc(-c3ccccc3)nc3c2Cc2ccccc2-3)c1 | 0.91 | 1350 | 1550 | 0.86 | 0.22 | 4 |
| 0 | 3.1 | – | Oc1cccc(-c2cc(-c3ccccc3Cl)nc3c2Cc2ccccc2-3)c1 | 0.25 | 400 | 310 | 4.74 | 0.41 | 2.01 |
| 35.5 | 4.9 | 2.8 | Oc1ccc(-c2cc(-c3cccc(Cl)c3)c3c(n2)-c2ccccc2C3)cc1 | 0.12 | 810 | 1630 | 0.9 | 0.22 | 3.68 |

The next lines start with the compound.

| SMILES | inhibition [7] [%] | inhibition [8] [%] | inhibition [9] [%] | Ratio IC50 [1] | IC50 [2] [nM] | IC50 (T47D [3]) [nM] | Ratio IC50 (T47D [4]) | Ratio IC50 (HeLa [5]) | IC50 (HeLa [6]) [µM] |
| --- | --- | --- | --- | --- | --- | --- | --- | --- | --- |
| c1ccc(-c2cc(-c3ccccc3)c3c(n2)-c2ccccc2C3)cc1 | 0 | 17.8 | – | – | > 50000 | 26800 | – | – | 17.3 |
| Oc1ccccc1-c1cc(-c2ccccc2Cl)nc2c1Cc1ccccc1-2 | 0.8 | 1.9 | – | – | 6230 | 6640 | – | – | 7.01 |
| Oc1ccc(-c2cc(-c3ccccc3Cl)nc3c2Cc2ccccc2-3)cc1 | 0 | 3.5 | – | 0.05 | 1820 | 790 | 1.86 | 0.3 | 2.7 |
| Oc1ccccc1-c1cc(-c2ccccc2)c2c(n1)-c1ccccc1C2 | 1.3 | 36.4 | – | – | > 50000 | > 50000 | – | – | > 50 |
| Oc1ccccc1-c1cc(-c2ccc(Cl)cc2)nc2c1Cc1ccccc1-2 | 0 | 2.7 | – | – | > 50000 | > 50000 | – | – | > 50 |
| COc1cccc2c1C(=O)c1c(O)c3c(c(O)c1C2=O)C[C@@](O)(C(=O)CO)C[C@@H]3O[C@H]1C[C@H](N)[C@H](O)[C@H](C)O1 [DOXORUBICIN HYDROCHLORIDE] | – | – | – | – | – | – | – | – | 0.82 |
| COc1cc([C@@H]2c3cc4c(cc3[C@@H](O[C@@H]3O[C@@H]5CO[C@@H](C)O[C@H]5[C@H](O)[C@H]3O)[C@H]3COC(=O)[C@H]23)OCO4)cc(OC)c1O [ETOPOSIDE] | – | – | – | – | 2820 | 1840 | – | – | 0.18 |
| Oc1ccccc1-c1cc(-c2ccc(Cl)cc2)c2c(n1)-c1ccccc1C2 | 8.3 | 2.8 | – | – | > 50000 | > 50000 | – | – | > 50 |
| CC[C@@]1(O)C(=O)OCc2c1cc1n(c2=O)Cc2cc3ccccc3nc2-1 [CAMPTOTHECIN] | – | – | – | – | 1290 | 11200 | – | – | 0.59 |
| Oc1ccccc1-c1cc(-c2ccccc2)nc2c1Cc1ccccc1-2 | 15.1 | 69.6 | – | – | > 50000 | > 50000 | – | – | > 50 |
| Oc1ccc(-c2cc(-c3ccccc3Cl)c3c(n2)-c2ccccc2C3)cc1 | 15.5 | 1.6 | – | 0.12 | 840 | 1630 | 0.9 | 0.24 | 3.41 |
| Oc1ccccc1-c1cc(-c2ccccc2Cl)c2c(n1)-c1ccccc1C2 | 0 | 4.8 | – | – | > 50000 | > 50000 | – | – | > 50 |
